Consider 61 compounds from PubChem BioAssay AID463206 (Broad Institute, 2010).

As a reminder, the AC50 is the midpoint of the concentration-response curve, whichever way the signal moves.

Calls of active or inactive are those of the source.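 The calls were made as follows: active = caspase luminescence falls with dose and the half-maximal concentration AC50 from the fitted curve is at or below a set limit; inconclusive = flat fit at 30 to 70% signal loss, or invalid fit; inactive = AC50 above the limit, or signal rises instead.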

This assay concerns INS-1E cytokine-induced caspase-3/7, Caspase-Glo luminescence, 48 h. Briefly: suppression of cytokine-driven beta-cell apoptosis – INS-1E rat cells, luminescence, orthogonal assay for beta-cell apoptosis protection project, dose response (AID 463206).

As for `COc1ccc(OC)c2[nH]c(C(=O)N/N=C/c3ccccc3O)cc12`, the AC50 was > 26 µM (inactive).
Regarding `O=C(c1ccc2c(c1)[nH]c(=S)n1c3ccccc3nc21)N1CCN(c2cccc(Cl)c2)CC1`, the AC50 was > 26 µM (inactive).
The same measure for `CCCC(=O)NC(NC(=S)Nc1ccc(N=Nc2ccccc2)cc1)C(Cl)(Cl)Cl` (stereo unspecified): > 26 µM (inactive); for `CCCCCCc1cc2cc(-c3nnc(-c4ccccc4O)o3)c(=O)oc2cc1O`: > 26 µM (inactive).
The same measure for `Cc1ccc(-c2nn(-c3ccccc3)cc2/C=N/NC(=O)c2ccc3c(c2)OCO3)cc1`: > 26 µM (inactive).
With `Cc1ccc(C2CC(c3cccc(C)c3)n3nc(N)nc3N2)cc1` (stereo unspecified), the AC50 is > 26 µM (inactive).
`CCOC(=O)C1CCN(Cc2ccc(O)c3ncccc23)CC1`: the AC50 is > 26 µM (inactive).
Next, `COc1cc(CC(=O)Nc2nc(-c3ccc(F)c(F)c3)cs2)cc(OC)c1OC`: > 26 µM (inactive); `CCc1ccc(NC(=O)CSc2ccc(-c3ccccn3)nn2)cc1`: > 26 µM (inactive).
For the compound `Fc1cccc(Cl)c1-c1nnc2ccc3ccccc3n12`, the AC50 is > 26 µM (inactive).
Next, `O=C(NNC(=O)C12CC3CC(CC(C3)C1)C2)c1ccccn1`: > 26 µM (inactive).
The same measure for `COc1ccc(Nc2nc(N3CCCCC3)c3ccccc3n2)cc1`: 21.1 µM; for `COc1ccc(Nc2ccc3c(c2)=NC2(CCCCC2)[N+]=3[O-])cc1`: > 26 µM (inactive); for `COCCn1c(SCC(=O)/C=C2\N(C)c3ccccc3C2(C)C)nnc1-c1ccncc1`: > 26 µM (inactive).
The same measure for `Cc1cccc(NC2=C(NC(=O)c3ccccc3)C(=O)c3ccccc3C2=O)c1`: > 26 µM (inactive); for `CCCC[n+]1ccn(C2=C([O-])c3ccccc3C(=O)/C2=N\S(=O)(=O)c2ccc(Cl)cc2)c1`: > 26 µM (inactive).
Consider `CCOC(=O)c1nc(NNC(=O)c2ccc([N+](=O)[O-])cc2)sc1C`, for which the AC50 is > 26 µM (inactive).
As for `CN(C)c1cc[n+](CC(=O)Nc2ccc(Oc3ccccc3)cc2)cc1`, the AC50 is > 26 µM (inactive).
Next, `Fc1ccc2nc(Nc3nc4c(F)cc(F)cc4s3)sc2c1`: > 26 µM (inactive).
Next, `C/C(=N\NC(=O)c1ccc(Cl)cc1)c1ccccn1`: > 26 µM (inactive).
Next, `O=C(/C(N=Nc1cccc([N+](=O)[O-])c1)=C(/O)c1ccc(Br)cc1)C(F)(F)F`: > 26 µM (inactive); `CCOC(=O)C1(Cc2cccc(Cl)c2)CCCN(C(=O)c2ccc(COC)s2)C1` (stereo unspecified): > 26 µM (inactive); `CC[N+]1=C(C)C(C)(C)c2cc(C)ccc21`: > 26 µM (inactive).
In the case of `CCOc1cc(N2CCOCC2)c(OCC)cc1NC(=O)COc1cccc2cccnc12`, the AC50 is > 26 µM (inactive).
For `Cc1cc(N/N=C/c2ccccc2[N+](=O)[O-])nc(-n2nc(C)cc2C)n1`, the AC50 was > 26 µM (inactive).
`Oc1ccc(Br)cc1CNc1cccc2cccnc12`: the AC50 was > 26 µM (inactive).
The same measure for `CCC[N+]1(CC#CCC(c2ccccc2)c2ccccc2)CCCCC1`: > 26 µM (inactive); for `NC(N)=N/N=C/c1cn(-c2ccccc2)nc1-c1cccs1`: > 26 µM (inactive); for `CC[C@H](C)[C@@H](C(=O)NCCCCCCCCCCC(=O)N1CCN(C(=O)OC(C)(C)C)CC1)n1cc(CCCCCNC(=O)OC(C)(C)C)nn1`: > 26 µM (inactive).
Next, `CCN(CC)c1ccc(C(=O)N/N=C/c2ccccc2OC(F)F)cc1`: > 26 µM (inactive); `CC1(C)C[C@@H]2C[C@@](C)(CN2C(=O)c2cc(COc3cccc(C(F)(F)F)c3)on2)C1`: > 12 µM (inactive); `O=C(Nc1ccc(OC(F)F)cc1)Nc1cccc(C(F)(F)F)c1`: > 26 µM (inactive).
Turning to `CCCC(=O)N(CCN(C(=O)CCC)c1ccccc1)c1ccccc1`, the AC50 was > 26 µM (inactive).
The same measure for `CCCC(=O)NC(c1cccs1)c1cc(Cl)c2cccnc2c1O` (stereo unspecified): > 26 µM (inactive); for `Cc1onc(-c2ccccc2)c1C(=O)NC(=S)NNC(=O)c1ccccc1O`: > 26 µM (inactive).
Consider `COc1cccc(COc2cc3ccccc3nc2C)c1`, for which the AC50 was > 26 µM (inactive).
In the case of `Cc1occc1C(=O)N/N=C/c1c(O)ccc2ccccc12`, the AC50 was > 26 µM (inactive).
As to `CCOc1ccc(Nc2nc(Cc3nnc(SCC(=O)c4ccc(C)c(C)c4)o3)cs2)cc1`, the AC50 is > 26 µM (inactive).
The same measure for `O=c1[nH]c(NCCCO)nc2c1C1(CCCC1)Cc1ccccc1-2`: > 26 µM (inactive).
The same measure for `COc1ccc(C(=O)N/N=C/c2ccccc2OC(=O)c2ccccc2)cc1`: > 26 µM (inactive); for `O=[N+]([O-])c1ccc(-n2cnc3ccccc32)c([N+](=O)[O-])c1`: > 12 µM (inactive).
The same measure for `CCn1c(Cl)c(C=O)s/c1=N\S(=O)(=O)c1ccccc1`: > 26 µM (inactive).
With `Cc1nc2cc(-c3ccccc3)sc2c(=O)n1N`, the AC50 was > 26 µM (inactive).
Consider `Cc1ccn2c(Nc3ccccc3C)c(-c3ccccn3)nc2c1`, for which the AC50 is > 26 µM (inactive).
The same measure for `COC(=O)c1ccccc1NC1=C/C(=N\S(=O)(=O)c2cccs2)c2ccccc2C1=O`: > 26 µM (inactive); for `COc1nnc(-c2ccc(N3CCCCC3)c(NC(=O)C3CCCCC3)c2)c2ccccc12`: > 26 µM (inactive); for `CCOC(=O)c1sc(NC(=O)c2c(C)nn(Cc3ccccc3)c2C)cc1C`: > 26 µM (inactive).
Consider `CCOC(=O)c1cnc(-n2nc(C)cc2C)nc1NC(C)c1ccccc1` (stereo unspecified), for which the AC50 is > 12 µM (inactive).
The same measure for `CN1/C(=C\C(=S)Nc2ccccc2)C(C)(C)c2ccccc21`: > 26 µM (inactive); for `CCC(=NNC(=O)c1ccc2c(c1)nc(C)n2CC)c1cc(F)ccc1O`: > 26 µM (inactive).
The same measure for `COc1ccc(-c2cn(-c3ccc(OC)cc3)c3[n+]2-c2ccccc2CC3)cc1`: > 26 µM (inactive); for `CCCCC(=O)NC(c1ccccc1OC)c1ccc2cccnc2c1O` (stereo unspecified): > 26 µM (inactive); for `CN1/C(=C\C(=O)C[n+]2cccc(Br)c2)C(C)(C)c2ccccc21`: > 26 µM (inactive).
Consider `NC(N)=N/N=C/c1ccc(N(c2ccccc2)c2ccccc2)cc1`, for which the AC50 is > 26 µM (inactive).
Regarding `COC(=O)c1ccc2c(=O)n(-c3ccccc3)c(SCN3C(=O)c4ccccc4C3=O)nc2c1`, the AC50 was > 26 µM (inactive).
The same measure for `CCC(C)Nc1nc(-c2ccccn2)nc2ccccc12` (stereo unspecified): > 26 µM (inactive); for `O=[N+]([O-])c1cccc2c(N3CCCC3)ccnc12`: > 26 µM (inactive); for `Cn1nccc1C(=O)N/N=C/c1c(O)ccc2ccccc12`: > 26 µM (inactive).
Next, `C=C(C(=O)c1ccccc1)C(C(=C)C(=O)c1ccccc1)c1ccc(OC)cc1`: > 26 µM (inactive); `Cc1cc(F)ccc1S(=O)(=O)Nc1ccccc1C(=O)Nc1ccccc1-c1nc2ccccc2[nH]1`: > 26 µM (inactive); `Cc1sc2cc3c(c(C(=O)c4ccccc4)[n+]2c1C)-c1cccc2cccc-3c12`: > 26 µM (inactive).
